The target of one experiment is T1, PPARγ (Homo sapiens, UniProt P37231).
T1 construct: expressed in transfected cells; host or cells: CHO-K1
T1 sequence (P37231 1-477 isoform P37231-2): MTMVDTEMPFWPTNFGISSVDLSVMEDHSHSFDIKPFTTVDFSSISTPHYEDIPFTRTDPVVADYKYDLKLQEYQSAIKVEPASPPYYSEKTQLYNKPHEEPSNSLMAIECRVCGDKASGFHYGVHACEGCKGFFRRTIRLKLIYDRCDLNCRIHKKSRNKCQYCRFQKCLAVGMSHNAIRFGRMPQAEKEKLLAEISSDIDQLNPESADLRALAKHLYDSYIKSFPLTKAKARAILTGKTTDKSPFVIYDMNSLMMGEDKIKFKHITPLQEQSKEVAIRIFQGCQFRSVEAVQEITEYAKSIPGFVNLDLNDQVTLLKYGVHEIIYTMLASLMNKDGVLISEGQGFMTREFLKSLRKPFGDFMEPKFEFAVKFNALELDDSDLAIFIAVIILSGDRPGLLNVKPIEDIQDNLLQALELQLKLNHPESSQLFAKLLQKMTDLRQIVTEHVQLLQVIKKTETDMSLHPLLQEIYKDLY
T1 sequence (P19793 1-462 partner): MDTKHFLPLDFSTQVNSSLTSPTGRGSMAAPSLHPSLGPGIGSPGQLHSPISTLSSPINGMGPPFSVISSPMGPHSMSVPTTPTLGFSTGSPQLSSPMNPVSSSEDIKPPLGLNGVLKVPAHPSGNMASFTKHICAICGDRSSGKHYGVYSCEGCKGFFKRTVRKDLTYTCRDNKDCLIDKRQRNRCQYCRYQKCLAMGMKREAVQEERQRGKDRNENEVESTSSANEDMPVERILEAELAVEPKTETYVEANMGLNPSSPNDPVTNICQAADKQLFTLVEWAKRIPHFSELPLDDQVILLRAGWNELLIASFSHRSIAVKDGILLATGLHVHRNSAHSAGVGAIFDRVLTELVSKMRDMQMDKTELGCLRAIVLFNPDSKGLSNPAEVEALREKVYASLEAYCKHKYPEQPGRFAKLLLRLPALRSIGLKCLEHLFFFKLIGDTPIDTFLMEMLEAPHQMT
Put plainly: Evaluation of PPARγ activating action (luciferase reporter in PPARγ:RXRα:4ERPP/CHO-K1 cells). It counts as cell-based. The following applies: CHO-K1, 24 h; test compound 10^−6 M; luciferase activity relative to control compound X (1 μM) = 100%, non-administration group = 0%; read-out: PPARγ activating action (activation % (10^−6 M)). The procedure: PPARγ:RXRα:4ERPP/CHO-K1 cells obtained in the following Reference Example 5 were cultured in F12 medium [manufactured by INVITROGEN, USA] containing 10% fetal bovine serum [manufactured by MOREGATE, Australia], seeded in a 96-well half area white plate [manufactured by Corning Coster Corporation, USA] at the density of 5×10^3 cells/well and cultured in a CO2 gas incubator at 37° C. overnight.
Then the medium was removed from the 96-well half area white plate, 45 μl of Ham's F12 medium containing 0.1% fatty acid-free bovine serum albumin (BSA) and 5 μl of test compound were added, and the cells were cultured in a CO2 gas incubator at 37° C. for 1 day. The medium was removed and 20 μl of PicaGene 7.5 [manufactured by TOYO INK MFG. CO., LTD.,.Japan] diluted 2-fold with HBSS (HANKS' BALANCED SALT SOLUTION) [manufactured by BIO WHITTAKER, USA] was added. After stirring, the luciferase activity was determined using 1420 ARVO Multilabel Counter [manufactured by PerkinElmer, USA].
The percent (%) was calculated from the luciferase activity of each test compound when the luciferase activity of the control compound (compound X: 5-[3-(4-{[2-(2-furyl)-5-methyl-1,3-oxazol-4-yl]methoxy}-3-methoxyphenyl)propyl]-1,3-oxazolidine-2,4-dione) (1 μM) was 100% and that of the test compound non-administration group was 0%.
A CHO-K1 cell cultured in a 150 cm^2 cell culture flask [manufactured by Corning Costar Corporation, USA] containing Ham's F12 medium [manufactured by INVITROGEN, USA] supplemented with 10% fetal bovine serum [manufactured by INVITROGEN, USA] was scraped by treating with 0.5 g/L trypsin-0.2 g/L EDTA (ethylenediaminetetraacetic acid) [manufactured by Life Technologies, Inc., USA], and then the cell was washed with PBS (Phosphate-buffered saline) [manufactured by INVITROGEN, USA], centrifuged (1000 rpm, 5 minutes) and suspended in PBS. Subsequently, DNA was introduced into the cell under the conditions shown below using GENE PULSER [manufactured by Bio-Rad Laboratories, USA].
Namely, to a cuvette having a 0.4 cm gap were added 8×10^6 cells and 10 μg of plasmid pVgRXR2-hPPARγ obtained in Reference Example 4 and 10 μg of reporter plasmid pGL3-4ERPP-TK neo obtained in Reference Example 3, which was subjected to electroporation at the voltage of 0.25 kV under the capacitance of 960 μF. Subsequently, the cell was transferred into a F12 medium containing 10% fetal bovine serum and cultured for 24 hours, and then the cell was scraped again and centrifuged, and then suspended in Ham's F12 medium containing 10% fetal bovine serum supplemented with 500 μg/ml of Geneticin [manufactured by INVITROGEN, USA] and 250 μg/ml of Zeocin [manufactured by INVITROGEN, USA]. The obtained suspension was diluted to the density of 10^4 cells/ml and inoculated in a 96-well plate [manufactured by Corning Costar Corporation, USA], which was cultured in a CO2 gas incubator at 37° C., whereby obtaining a Geneticin- and Zeocin-resistant transformant.
Subsequently, after the transformant cell line thus obtained was cultured in a 24-well plate [manufactured by Corning Costar Corporation, USA], a cell line in which the luciferase was expressed and induced, i.e., PPARγ:RXRα:4ERPP/CHO-K1 cell was selected by the addition of 10 μM pioglitazone hydrochloride.
In general terms: A reporter such as luciferase makes a cellular process visible.

The next experiment has as its target T2, human AT1 receptor (Homo sapiens, UniProt P30556).
T2 construct: expressed in transfected cells; host or cells: CHO-K1
T2 sequence (P30556 1-359): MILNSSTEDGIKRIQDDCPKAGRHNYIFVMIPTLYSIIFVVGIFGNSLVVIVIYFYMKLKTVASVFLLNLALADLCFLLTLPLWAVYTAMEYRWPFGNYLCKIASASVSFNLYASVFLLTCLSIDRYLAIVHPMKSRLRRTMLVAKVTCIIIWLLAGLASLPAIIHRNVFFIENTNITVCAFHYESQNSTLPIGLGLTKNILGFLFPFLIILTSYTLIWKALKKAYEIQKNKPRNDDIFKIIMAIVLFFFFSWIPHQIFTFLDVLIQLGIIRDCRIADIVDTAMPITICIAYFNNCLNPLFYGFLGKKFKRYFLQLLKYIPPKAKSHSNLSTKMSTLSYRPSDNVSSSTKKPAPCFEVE
Put plainly: Binding assay using human AT1 receptor-expressing CHO-K1 cell membrane fraction ([125I]-angiotensin II). The following applies: 22.5 pM [125I]-angiotensin II, 9 μg AT1 membrane, 1 hr room temperature; read-out: AT1 receptor binding inhibitory action (IC50 (nM)). As for the experimental part:
The membrane fraction for human AT1 receptor binding assay was prepared as follows. CHO-K1 cell capable of stable expression of human AT1 receptor was cultured, recovered, suspended in homogenize buffer (10 mM NaHCO3 (pH 7.4), 5 mM EDTA, 1×Complete EDTA free) [manufactured by Roche, Switzerland], and homogenized. The homogenate was centrifuged at low-speed (900×g, 10 min, 4° C.), and the supernatant was recovered and ultracentrifuged (90,000×g, 1 hr, 4° C.). The supernatant was discarded, and the pellets were resuspended in resuspension buffer (50 mM Tris (pH 7.4), 1 mM EDTA, 1×Complete EDTA free).
The binding assay was performed in the presence of 22.5 pM [^125I]-angiotensin II [manufactured by PerkinElmer, USA], 9 μg of AT1 membrane and test compound in 100 μL (total reaction volume) of reaction buffer (50 mM Tris (pH 7.4), 10 mM MgCl2 supplemented or not supplemented with 0.3 mg/mL fatty acid-free bovine serum albumin [manufactured by Wako Pure Chemical Industries, Ltd., Japan]). The reaction mixture was incubated in 96 well polypropylene plate for 1 hr at room temperature, and the reaction was quenched by rapid filtration (96 well cell harvester) through a GF/C filter treated with wash buffer (50 mM Tris (pH 7.4)). Subsequently, the filter was washed 5 times with 0.3 mL of ice-cooled wash buffer. The filter was air-dried, and [^125I]-angiotensin II binding radioactivity was assayed with Top Count scintillation counter. Total binding was measured in the presence of 1% DMSO and nonspecific binding was measured in the presence of 1 μM CV-11974. The binding data was analyzed by GraphPad Prism program and the IC50 value (compound concentration showing 50% of the maximum value of inhibition percent) of the test compound was calculated.

Turning to `CCCCc1nc(OC)n(Cc2ccccc2)c(=O)c1Cc1ccc(-c2ccccc2-c2noc(=O)[nH]2)cc1` [Example 107, 3-benzyl-6-butyl-2-methoxy-5-{[2′-(5-oxo-4,5-dihydro-1,2,4-oxadiazol-3-yl)biphenyl-4-yl]methyl}pyrimidin-4(3H)-one], the activation at 1 µM on PPARγ turned out to be 60%. Further, the IC50 (as a rule, the midpoint of a concentration-inhibition curve) on human AT1 receptor is 2 nM.

As to `CCCCc1nc(OC)n(-c2ccccc2)c(=O)c1Cc1ccc(-c2ccccc2-c2noc(=O)[nH]2)cc1` [Example 108, 6-butyl-2-methoxy-5-{[2′-(5-oxo-4,5-dihydro-1,2,4-oxadiazol-3-yl)biphenyl-4-yl]methyl}-3-phenylpyrimidin-4(3H)-one], on PPARγ, the activation at 1 µM is 31.7%. Further, the half-maximal inhibitory concentration (IC50) on human AT1 receptor was determined as 2.2 nM.

On to `CCCCc1nc(C2CC2)n(-c2ccc3c(c2)CCO3)c(=O)c1Cc1ccc(-c2ccccc2-c2noc(=O)[nH]2)cc1` [Example 112, 6-butyl-2-cyclopropyl-3-(2,3-dihydro-1-benzofuran-5-yl)-5-{[2′-(5-oxo-4,5-dihydro-1,2,4-oxadiazol-3-yl)biphenyl-4-yl]methyl}pyrimidin-4(3H)-one], for which the activation at 1 µM on PPARγ turned out to be 52.1%. Also, the IC50 on human AT1 receptor was found to be 1.7 nM.

On to `CCCCc1nc(C(C)C)n(-c2ccc3c(c2)CCO3)c(=O)c1Cc1ccc(-c2ccccc2-c2noc(=O)[nH]2)cc1` [Example 118, 6-butyl-3-(2,3-dihydro-1-benzofuran-5-yl)-2-isopropyl-5-{[2′-(5-oxo-4,5-dihydro-1,2,4-oxadiazol-3-yl)biphenyl-4-yl]methyl}pyrimidin-4(3H)-one], for which, on PPARγ, the activation at 1 µM came out at 50.2%. Further, the IC50 on human AT1 receptor came out at 1.8 nM.

On to `CCCCc1nc(C)n(-c2ccc3c(c2)CC(C)(C)O3)c(=O)c1Cc1ccc(-c2ccccc2-c2nsc(=O)[nH]2)cc1` [Example 128, 6-butyl-3-(2,2-dimethyl-2,3-dihydro-1-benzofuran-5-yl)-2-methyl-5-{[2′-(5-oxo-4,5-dihydro-1,2,4-thiadiazol-3-yl)biphenyl-4-yl]methyl}pyrimidin-4(3H)-one], for which, on PPARγ, the activation at 1 µM was determined as 24.3%. In addition, the IC50 on human AT1 receptor came out at 1.9 nM.

On to `CCCc1nc(C)n(-c2ccc3c(c2)CCC(C)(C)O3)c(=O)c1Cc1ccc(-c2ccccc2-c2noc(=O)[nH]2)cc1` [Example 131, 3-(2,2-dimethyl-3,4-dihydro-2H-chromen-6-yl)-2-methyl-5-{[2′-(5-oxo-4,5-dihydro-1,2,4-oxadiazol-3-yl)biphenyl-4-yl]methyl}-6-propylpyrimidin-4(3H)-one], for which, at PPARγ, the activation at 1 µM turned out to be 34.2%. Besides, the IC50 on human AT1 receptor stood at 2.2 nM.

Take `CCCCc1nn(-c2ccc3c(c2)CC(C)(C)O3)c(=O)n1Cc1ccc(-c2ccccc2-c2noc(=O)[nH]2)cc1` [Example 136, 3-(4′-{[3-butyl-1-(2,2-dimethyl-2,3-dihydro-1-benzofuran-5-yl)-5-oxo-1,5-dihydro-4H-1,2,4-triazol-4-yl]methyl}biphenyl-2-yl)-1,2,4-oxadiazol-5(4H)-one]: the activation at 1 µM at PPARγ came to 32.9%. Moreover, the IC50 on human AT1 receptor amounted to 2.9 nM.

Regarding `CCCc1nc(C)n(-c2ccc(OC(C)C)cc2)c(=O)c1Cc1ccc(-c2ccccc2-c2noc(=O)[nH]2)cc1F` [Example 141, 5-{[3-fluoro-2′-(5-oxo-4,5-dihydro-1,2,4-oxadiazol-3-yl)biphenyl-4-yl]methyl}-3-(4-isopropoxyphenyl)-2-methyl-6-propylpyrimidin-4(3H)-one], at PPARγ, the activation at 1 µM worked out at 38.3%. The IC50 at human AT1 receptor was 1.8 nM.

On to `CCCc1nc(C)n(-c2ccc3c(c2)C=CC(C)(C)O3)c(=O)c1Cc1ccc(-c2ccccc2-c2noc(=O)[nH]2)cc1` [Example 142, 3-(2,2-dimethyl-2H-chromen-6-yl)-2-methyl-5-{[2′-(5-oxo-4,5-dihydro-1,2,4-oxadiazol-3-yl)biphenyl-4-yl]methyl}-6-propylpyrimidin-4(3H)-one], for which, at PPARγ, the activation at 1 µM turned out to be 32.8%. At human AT1 receptor, the IC50 stood at 1.7 nM.

In the case of `CCCc1nc(C)n(-c2ccc3c(c2)C(O)CC(C)(C)O3)c(=O)c1Cc1ccc(-c2ccccc2-c2noc(=O)[nH]2)cc1` (centres unmarked) [Example 144, 3-(4-hydroxy-2,2-dimethyl-3,4-dihydro-2H-chromen-6-yl)-2-methyl-5-{[2′-(5-oxo-4,5-dihydro-1,2,4-oxadiazol-3-yl)biphenyl-4-yl]methyl}-6-propylpyrimidin-4(3H)-one], the activation at 1 µM on PPARγ turned out to be 22.7%. The IC50 on human AT1 receptor is 1.5 nM.

The values are drawn from patent US20100056526A1, “HETEROMONOCYCLIC COMPOUND AND USE THEREOF” (Takeda Pharmaceutical Company Limited, priority 2006, published 2010).
